Test results as given in patent publication US20240025892A1 (priority 2020, published 2024).
pIC50: −log10 of the molar value. Where two headings read alike, the source gives them in different places.

Tests used:
Recombinant SIK2 = Recombinant SIK2 (Homo sapiens (Human), UniProt Q9H0K1); assay: biochemical
Experimental: Assays were performed in base reaction buffer (20 mM Hepes (pH 7.5), 10 mM MgCl2, 1 mM EGTA, 0.02% Brij35, 0.02 mg/mL BSA, 0.1 mM Na3VO4, 2 mM DTT, 1% DMSO). Compounds were dissolved in 100% DMSO in a 10 mM stock. […] Assays were performed for 20 minutes at room temperature, after which time ^33P-ATP (10 μCi/μL) was added followed by incubation for another 120 minutes at room temperature. Thereafter, radioactivity incorporated into the pEY peptide substrate was detected by filter-binding method. Kinase activity data were expressed as the percent remaining kinase activity in test samples compared to DMSO reactions. IC50 values and curve fits were obtained using Prism (GraphPad Software).

RANKL = RANKL gene expression in Ocy454 cells (RT-qPCR); conditions: maximal RANKL fold induction versus DMSO, four hours;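 also: Ocy454 cells moved to 37 °C for osteocytic differentiation before compound exposure, RANKL mRNA by SYBR Green qRT-PCR, 2^−ΔΔCT with β-actin normalization, duplicate wells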
CRTC2 (TORC2) = assay: CRTC2 nuclear translocation (PathHunter U2OS); format: cell-based; conditions: maximal CRTC2 nuclear translocation, U2OS cells, 90 minutes, maximum dose 10 μM
Excerpt: PathHunter® Nuclear Translocation cell lines are engineered to co-express two fusion proteins: a) Enzyme Donor (ED) tagged target protein; b) an Enzyme Acceptor (EA) tagged TAZ domain, derived from the CBP/P300 transcription factor, that localizes to the nucleus. Activation of the signaling pathway induces translocation of the ED-tagged target protein into the nucleus, which will force complementation of the two enzyme fragments, and result in the formation of a functional enzyme that will hydrolyze substrate and generate a chemiluminescent signal. U2OS CRTC2 (TORC2) translocation assays were performed in 384 well plates at Eurofins DiscoverX (Freemont, CA). Cells were treated with compounds for 90 minutes in experimental duplicates in 5 point dose response format (4-fold serial dilutions with a maximum dose of 10 μM) followed by […] readout on an Envision 2104 Multilabel Reader. In all experiments, forskolin was used as a positive control and maximal CRTC2 nuclear translocation induced by each compound is expressed as a percentage of the signal stimulated by forskolin.
Representative data are shown in FIG. 4A and presented as percent of the positive control (forskolin) signal.

[1] = recombinant SIK2 2.5 nM, 1 μM ATP, read-out: SIK2 IC50

Chain of Recombinant SIK2 (Q9H0K1 whole entry): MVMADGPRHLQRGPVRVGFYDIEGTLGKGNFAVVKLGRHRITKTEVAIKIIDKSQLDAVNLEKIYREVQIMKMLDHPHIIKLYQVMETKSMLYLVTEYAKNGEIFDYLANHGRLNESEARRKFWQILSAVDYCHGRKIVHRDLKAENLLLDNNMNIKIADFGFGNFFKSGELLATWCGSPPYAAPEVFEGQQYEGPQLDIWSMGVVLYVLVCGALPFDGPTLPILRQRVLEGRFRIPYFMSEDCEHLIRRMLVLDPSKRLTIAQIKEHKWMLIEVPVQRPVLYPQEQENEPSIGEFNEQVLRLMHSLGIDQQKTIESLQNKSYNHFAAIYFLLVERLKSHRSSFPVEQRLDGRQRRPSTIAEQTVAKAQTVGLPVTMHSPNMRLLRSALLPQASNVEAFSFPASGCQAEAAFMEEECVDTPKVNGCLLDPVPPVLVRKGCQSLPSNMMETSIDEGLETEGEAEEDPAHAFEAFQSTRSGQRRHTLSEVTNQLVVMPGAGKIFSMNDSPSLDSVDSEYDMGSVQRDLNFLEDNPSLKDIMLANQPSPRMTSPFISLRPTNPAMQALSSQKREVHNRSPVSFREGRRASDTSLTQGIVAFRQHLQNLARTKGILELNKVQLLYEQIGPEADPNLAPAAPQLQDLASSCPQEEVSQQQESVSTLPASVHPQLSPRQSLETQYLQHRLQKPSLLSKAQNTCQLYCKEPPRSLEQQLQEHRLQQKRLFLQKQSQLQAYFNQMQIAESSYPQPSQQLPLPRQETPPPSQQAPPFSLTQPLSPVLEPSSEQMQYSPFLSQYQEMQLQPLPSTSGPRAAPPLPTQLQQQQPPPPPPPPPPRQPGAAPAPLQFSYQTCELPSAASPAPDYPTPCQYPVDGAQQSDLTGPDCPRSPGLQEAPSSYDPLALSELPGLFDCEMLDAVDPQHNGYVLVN

Structure (SMILES) | pIC50 (Recombinant SIK2; initial in vitro testing, read-out: SIK2 inhibition IC50) | pIC50 (Recombinant SIK2; [1]) | RANKL Fold Induction (RANKL) | CRTC2 Efficacy (% of forskolin) (CRTC2 (TORC2))
COc1cc(-c2cnc3cc(-c4cnn(C5CC5)c4)ccn23)cc(OC)c1C(=O)NN [Cmpd. 55A, 4-(7-(1-cyclopropyl-1H-pyrazol-4-yl)imidazo[1,2-a]pyridin-3-yl)-2,6-dimethoxybenzohydrazide] | > 10.00 |  |  | 
Cc1cn(-c2cccc3ccc(-n4cnc5cc(OCC6(C)COC6)ccc54)nc23)cn1 [Example 1, 8-(4-Methylimidazol-1-yl)-2-[5-[(3-methyloxetan-3-yl)methoxy]benzimidazol-1-yl]quinoline] |  | 7.51 | 3.08 fold | 
CC1(COc2ccc3c(c2)ncn3-c2ccc3cccc(N4CCC5(CCNC5)C4)c3n2)COC1 (centres unmarked) [Example 6, 2-(5-((3-methyloxetan-3-yl)methoxy)-1H-benzo[d]imidazol-1-yl)-8-(2,7-diazaspiro[4.4]nonan-2-yl)quinoline] |  | 8.24 |  | 127.8 % of forskolin
CC1(COc2ccc3c(c2)ncn3-c2ccc3cccc(OC4CNC4)c3n2)COC1 [Example 9, 8-(azetidin-3-yloxy)-2-(5-((3-methyloxetan-3-yl)methoxy)-1H-benzo[d]imidazol-1-yl)quinoline] |  | 7.61 | 9.69 fold | 
CN1CC(Oc2cccc3ccc(-n4cnc5cc(OCC6(C)COC6)ccc54)nc23)C1 [Example 11, 8-((1-Methylazetidin-3-yl)oxy)-2-(5-((3-methyloxetan-3-yl)methoxy)-1H-benzo[d]imidazol-1-yl)quinoline] |  | 7.64 | 1.38 fold | 
CC1(COc2ccn3c(-c4ccc5cccc(N6CCC(N)CC6)c5n4)cnc3c2)COC1 [Example 13, 1-(2-(7-((3-Methyloxetan-3-yl)methoxy)imidazo[1,2-a]pyridin-3-yl)quinolin-8-yl)piperidin-4-amine] |  | 8.38 |  | 140.6 % of forskolin
Cn1cnc(-c2cccc3ccc(-n4cnc5cc(OCC6(C)COC6)ccc54)nc23)c1 [Example 18, 8-(1-Methyl-1H-imidazol-4-yl)-2-(5-((3-methyloxetan-3-yl)methoxy)-1H-benzo[d]imidazol-1-yl)quinoline] |  | 6.73 | 7.49 fold | 
Cc1ccc(CNC(=O)c2ccn3c(-c4ccc(C#N)cc4)cnc3c2)cn1 [Example 19, 3-(4-cyanophenyl)-N-[(6-methyl-3-pyridyl)methyl]imidazo[1,2-a]pyridine-7-carboxamide] |  |  | 1.04 fold | 27 % of forskolin
N#Cc1ccc(-c2cnc3cc(C(=O)NCc4ccnnc4)ccn23)cc1 [Example 20, 3-(4-cyanophenyl)-N-(pyridazin-4-ylmethyl)imidazo[1,2-a]pyridine-7-carboxamide] |  | 6.96 |  | 9.4 % of forskolin
N#Cc1ccc(-c2cnc3cc(C(=O)NCc4cnccn4)ccn23)cc1 [Example 21, 3-(4-cyanophenyl)-N-(pyrazin-2-ylmethyl)imidazo[1,2-a]pyridine-7-carboxamide] |  | 6.93 |  | 9.9 % of forskolin
N#Cc1ccc(-c2cnc3cc(C(=O)NCc4nc5ccccc5o4)ccn23)cc1 [Example 26, N-(benzo[d]oxazol-2-ylmethyl)-3-(4-cyanophenyl)imidazo[1,2-a]pyridine-7-carboxamide] |  | 7.08 | 0.55 fold | 1.3 % of forskolin
N#Cc1ccc(-c2cnc3cc(C(=O)NCc4ccco4)ccn23)cc1 [Example 27, 3-(4-cyanophenyl)-N-(furan-2-ylmethyl)imidazo[1,2-a]pyridine-7-carboxamide] |  | 6.88 |  | 5.3 % of forskolin
Cc1ccc(CN(C)C(=O)c2ccn3c(-c4ccc(C#N)cc4)cnc3c2)cn1 [Example 30, 3-(4-Cyanophenyl)-N-methyl-N-((6-methylpyridin-3-yl)methyl)imidazo[1,2-a]pyridine-7-carboxamide] |  | 5.77 |  | 1.7 % of forskolin
N#Cc1ccc(-n2cnc3cc(C(=O)NCc4cccnc4)ccc32)cc1 [Example 32, 1-(4-cyanophenyl)-N-(3-pyridylmethyl)benzimidazole-5-carboxamide] |  |  |  | 10.6 % of forskolin
N#Cc1ccc(-n2cnc3cc(C(=O)NCc4nc5ccccc5[nH]4)ccc32)cc1 [Example 34, N-((1H-benzo[d]imidazol-2-yl)methyl)-1-(4-cyanophenyl)-1H-benzo[d]imidazole-5-carboxamide] |  | 7.70 |  | 14 % of forskolin
N#Cc1ccc(-c2cnc3nc(C(=O)NCc4cccnc4)ccn23)cc1 [Example 36, 3-(4-cyanophenyl)-N-(3-pyridylmethyl)imidazo[1,2-a]pyrimidine-7-carboxamide] |  | 5.28 |  | 2.5 % of forskolin

Structure (SMILES) | pIC50 (Recombinant SIK2; initial in vitro testing, read-out: SIK2 inhibition IC50) | pIC50 (Recombinant SIK2; [1]) | RANKL Fold Induction (RANKL) | CRTC2 Efficacy (% of forskolin) (CRTC2 (TORC2))
COc1cc(-c2cnc3cc(OCC4(C)COC4)ccn23)cc(OC)c1C#N [Example 40, 2,6-dimethoxy-4-(7-((3-methyloxetan-3-yl)methoxy)imidazo[1,2-a]pyridin-3-yl)benzonitrile] |  | 8.01 |  | 
CCn1cc(-c2ccc3c(c2)ncn3-c2ccc(C#N)cc2)cn1 [Example 43, 4-[5-(1-Ethylpyrazol-4-yl)benzimidazol-1-yl]benzonitrile] |  | 8.23 | 7.09 fold | 
N#Cc1ccc(-n2cnc3cc(-c4cnn(C5CC5)c4)ccc32)cc1 [Example 44, 4-(5-(1-Cyclopropyl-1H-pyrazol-4-yl)-1H-benzo[d]imidazol-1-yl)benzonitrile] |  | 8.63 | 3.07 fold | 
CCn1cc(-c2ccn3c(-c4ccc(C#N)cc4)cnc3c2)cn1 [Example 45, 4-[7-(1-Ethylpyrazol-4-yl)imidazo[1,2-a]pyridin-3-yl]benzonitrile] |  |  | 9.41 fold | 85 % of forskolin
CCn1cc(-c2ccn3c(-c4ccc(C#N)nc4)cnc3c2)cn1 [Example 46, 5-(7-(1-ethyl-1H-pyrazol-4-yl)imidazo[1,2-a]pyridin-3-yl)picolinonitrile] |  | 7.85 | 3.44 fold | 
N#Cc1ccc(-c2cnc3cc(-n4cnc(C5CC5)c4)ccn23)cc1 [Example 48, 4-[7-(4-Cyclopropylimidazol-1-yl)imidazo[1,2-a]pyridin-3-yl]benzonitrile] |  | 8.12 |  | 
N#Cc1ccc(-c2cnc3cc(-c4cnn(C5COC5)c4)ccn23)cc1 [Example 50, 4-(7-(1-(oxetan-3-yl)-1H-pyrazol-4-yl)imidazo[1,2-a]pyridin-3-yl)benzonitrile] |  | 8.63 | 15.84 fold | 
N#Cc1ccc(-c2cnn3cc(-c4cnn(C5CC5)c4)ccc23)cc1 [Example 54, 4-(6-(1-cyclopropyl-1H-pyrazol-4-yl)pyrazolo[1,5-a]pyridin-3-yl)benzonitrile] |  | 8.65 | 9.07 fold | 
CCc1nnc(-c2c(F)cc(-c3cnc4cc(-c5cnn(C)c5)ccn34)cc2F)o1 [Example 58, 2-(2,6-difluoro-4-(7-(1-methyl-1H-pyrazol-4-yl)imidazo[1,2-a]pyridin-3-yl)phenyl)-5-ethyl-1,3,4-oxadiazole] |  | 5.97 | 1.26 fold | 
CCc1nnc(-c2c(Cl)cc(-c3cnc4cc(-c5cnn(C)c5)ccn34)cc2Cl)o1 [Example 59, 2-(2,6-dichloro-4-(7-(1-methyl-1H-pyrazol-4-yl)imidazo[1,2-a]pyridin-3-yl)phenyl)-5-ethyl-1,3,4-oxadiazole] |  | 6.57 |  | 
CCn1cc(-c2cnc3c(-c4ccc(C#N)cc4)cnn3c2)cn1 [Example 63, 4-[6-(1-Ethylpyrazol-4-yl)pyrazolo[1,5-a]pyrimidin-3-yl]benzonitrile] |  | 8.47 | 0.89 fold | 
N#Cc1ccc(-c2cnn3cc(-c4cnn(C5CC5)c4)cnc23)cc1 [Example 64, 4-[6-(1-Cyclopropylpyrazol-4-yl)pyrazolo[1,5-a]pyrimidin-3-yl]benzonitrile] |  | 8.06 | 0.47 fold | 
CCn1cc(-c2c(OC)cc(-c3cnn4cc(-c5cnn(C6CC6)c5)ccc34)cc2OC)nn1 [Example 65, 6-(1-Cyclopropylpyrazol-4-yl)-3-[4-(1-ethyltriazol-4-yl)-3,5-dimethoxy-phenyl]pyrazolo[1,5-a]pyridine] |  | 7.63 |  | 
N#Cc1ccc(-c2cnc3cc(-c4cn(C5CC5)nn4)ccn23)cc1 [Example 66, 4-[7-(1-Cyclopropyltriazol-4-yl)imidazo[1,2-a]pyridin-3-yl]benzonitrile] |  | 7.43 |  | 
CCn1nnc(-c2ccn3c(-c4ccc(C#N)cc4)cnc3c2)n1 [Example 67, 4-[7-(2-Ethyltetrazol-5-yl)imidazo[1,2-a]pyridin-3-yl]benzonitrile] |  | 6.64 | 0.47 fold | 
